For 16 molecules, Ki results are on record in PMC9661477, “New Dual P-Glycoprotein (P-gp) and Human Carbonic Anhydrase XII (hCA XII) Inhibitors as Multidrug Resistance (MDR) Reversers in Cancer Cells” (Journal of Medicinal Chemistry, 2022).

The target of one test is hCA IX (Homo sapiens, UniProt Q16790). Nature of the test: stopped-flow CO2 hydrase assay, hCA IX.
The target of a further test is hCA I (Homo sapiens, UniProt P00915). In words: stopped-flow CO2 hydrase assay, hCA I. The note with it: read-out: Ki hCA I; stopped-flow technique, mean from three different assays.
Sequence of hCA I (P00915 whole entry): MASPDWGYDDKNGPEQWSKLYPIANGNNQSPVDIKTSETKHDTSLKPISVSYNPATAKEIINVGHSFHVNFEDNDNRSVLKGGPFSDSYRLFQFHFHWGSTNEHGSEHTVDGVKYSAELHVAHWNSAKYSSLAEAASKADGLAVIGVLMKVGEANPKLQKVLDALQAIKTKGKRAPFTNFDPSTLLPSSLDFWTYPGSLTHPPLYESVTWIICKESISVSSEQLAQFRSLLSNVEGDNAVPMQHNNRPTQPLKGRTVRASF
Another test deals with hCA II (Homo sapiens, UniProt P00918). In words: stopped-flow CO2 hydrase assay, hCA II. The note with it: read-out: Ki hCA II; stopped-flow technique, mean from three different assays.
Setting [1] is: read-out: Ki hCA IX, stopped-flow technique, mean from three different assays.

Read-outs that look alike come from different tables or passages of the source. A value given as a limit tells only on which side of the number the result lay.

Source text for hCA II: (§1) An SX.18MV-R Applied Photophysics (Oxford, U.K.) stopped-flow instrument has been used to assay the catalytic/inhibition of various CA isozymes.[38] […] The inhibition constants were obtained by nonlinear least-squares methods using the Cheng–Prusoff equation, as reported earlier,[32] and represent the mean from at least three different determinations.
Source text for hCA IX: as §1

As for `COc1cc(/C=C/C(=O)OCCCCCCCN(CCCOC(=O)/C=C/c2cc(OC)c(OC)c(OC)c2)CCCOc2ccc3ccc(=O)oc3c2)cc(OC)c1OC` [Compound 19, (E)-7-((3-((2-Oxo-2H-chromen-7-yl)oxy)propyl)(3-(((E)-3-(3,4,5-trimethoxyphenyl)acryloyl)oxy)propyl)amino)heptyl 3-(3,4,5-Trimethoxyphenyl)acrylate], the inhibitory constant (Ki) at hCA IX (setting [1]) is 27.8 nM; at hCA I it was more than 10000 nM; at hCA II, more than 10000 nM.

With `COc1cc(/C=C/C(=O)OCCCCCCCN(CCCOC(=O)c2c3ccccc3cc3ccccc23)CCCOc2ccc3ccc(=O)oc3c2)cc(OC)c1OC` [Compound 21, (E)-3-((3-((2-Oxo-2H-chromen-7-yl)oxy)propyl)(7-((3-(3,4,5-trimethoxyphenyl)acryloyl)oxy)heptyl)amino)propyl Anthracene-9-carboxylate], the results for the Ki at hCA IX (setting [1]), on hCA I and at hCA II were 14.2 nM, more than 10000 nM and more than 10000 nM, respectively.

For the molecule `COc1cc(C(=O)OCCCCCCN(CCCOC(=O)c2c3ccccc3cc3ccccc23)CCCOc2ccc3ccc(=O)oc3c2)cc(OC)c1OC` [Compound 15, 3-((3-((2-Oxo-2H-chromen-7-yl)oxy)propyl)(6-((3,4,5-trimethoxybenzoyl)oxy)hexyl)amino)propyl Anthracene-9-carboxylate], the Ki on hCA IX (setting [1]) is 54.1 nM; at hCA I it was more than 10000 nM; on hCA II, more than 10000 nM.

On to `COc1cc(C(=O)OCCCCCCCN(CCCOC(=O)c2c3ccccc3cc3ccccc23)CCCOc2ccc3ccc(=O)oc3c2)cc(OC)c1OC` [Compound 24, 3-((3-((2-Oxo-2H-chromen-7-yl)oxy)propyl)(7-((3,4,5-trimethoxybenzoyl)oxy)heptyl)amino)propyl Anthracene-9-carboxylate], for which the Ki was 38.5 nM on hCA IX (setting [1]), more than 10000 nM on hCA I and more than 10000 nM on hCA II.

On to `COc1cc(/C=C/C(=O)OCCCCCCCN(CCCOC(=O)c2cc(OC)c(OC)c(OC)c2)CCCOc2ccc3ccc(=O)oc3c2)cc(OC)c1OC` [Compound 20, (E)-3-((3-((2-Oxo-2H-chromen-7-yl)oxy)propyl)(7-((3-(3,4,5-trimethoxyphenyl)acryloyl)oxy)heptyl)amino)propyl 3,4,5-Trimethoxybenzoate], for which the inhibition constant (Ki) on hCA IX was less than 10 nM; on hCA IX (setting [1]), 5.2 nM; on hCA I it was more than 10000 nM; at hCA II, more than 10000 nM.

`COc1cc(/C=C/C(=O)OCCCN(CCCCCCCOC(=O)c2cc(OC)c(OC)c(OC)c2)CCCOc2ccc3ccc(=O)oc3c2)cc(OC)c1OC` [Compound 22, (E)-7-((3-((2-Oxo-2H-chromen-7-yl)oxy)propyl)(3-((3-(3,4,5-trimethoxyphenyl)acryloyl)oxy)propyl)amino)heptyl 3,4,5-Trimethoxybenzoate]: the Ki at hCA IX (setting [1]) was 43.8 nM; at hCA I it was more than 10000 nM; at hCA II it was more than 10000 nM.

For `COc1cc(C(=O)OCCCN(CCCCCOC(=O)c2c3ccccc3cc3ccccc23)CCCOc2ccc3ccc(=O)oc3c2)cc(OC)c1OC` [Compound 8, 5-((3-((2-Oxo-2H-chromen-7-yl)oxy)propyl)(3-((3,4,5-trimethoxybenzoyl)oxy)propyl)amino)pentyl Anthracene-9-carboxylate], the results for the Ki on hCA IX (setting [1]), at hCA I and at hCA II were 93.7 nM, more than 10000 nM and more than 10000 nM, respectively.

As to `COc1cc(/C=C/C(=O)OCCCN(CCCCCOC(=O)c2cc(OC)c(OC)c(OC)c2)CCCOc2ccc3ccc(=O)oc3c2)cc(OC)c1OC` [Compound 4, (E)-5-((3-((2-Oxo-2H-chromen-7-yl)oxy)propyl)(3-((3-(3,4,5-trimethoxyphenyl)acryloyl)oxy)propyl)amino)pentyl 3,4,5-Trimethoxybenzoate], the results for the inhibition constant Ki on hCA IX (setting [1]), at hCA I and on hCA II were 58.8 nM, more than 10000 nM and more than 10000 nM, respectively.

Turning to `COc1cc(/C=C/C(=O)OCCCCCCN(CCCOC(=O)c2c3ccccc3cc3ccccc23)CCCOc2ccc3ccc(=O)oc3c2)cc(OC)c1OC` [Compound 12, (E)-3-((3-((2-Oxo-2H-chromen-7-yl)oxy)propyl)(6-((3-(3,4,5-trimethoxyphenyl)acryloyl)oxy)hexyl)amino)propyl Anthracene-9-carboxylate], the Ki at hCA IX (setting [1]) is 26.8 nM; on hCA I, more than 10000 nM; at hCA II it was more than 10000 nM.

In the case of `COc1cc(C(=O)OCCCN(CCCCCCOC(=O)c2c3ccccc3cc3ccccc23)CCCOc2ccc3ccc(=O)oc3c2)cc(OC)c1OC` [Compound 17, 6-((3-((2-Oxo-2H-chromen-7-yl)oxy)propyl)(3-((3,4,5-trimethoxybenzoyl)oxy)propyl)amino)hexyl Anthracene-9-carboxylate], the inhibitory constant (Ki) on hCA IX (setting [1]) is 123 nM; at hCA I, more than 10000 nM; at hCA II, more than 10000 nM.

As to `COc1cc(C(=O)OCCCN(CCCCCCCOC(=O)c2c3ccccc3cc3ccccc23)CCCOc2ccc3ccc(=O)oc3c2)cc(OC)c1OC` [Compound 26, 7-((3-((2-Oxo-2H-chromen-7-yl)oxy)propyl)(3-((3,4,5-trimethoxybenzoyl)oxy)propyl)amino)heptyl Anthracene-9-carboxylate], the figures for the Ki at hCA IX (setting [1]), on hCA I and on hCA II were 41.3 nM, more than 10000 nM and more than 10000 nM, respectively.

Take `O=C(OCCCCCN(CCCOC(=O)c1c2ccccc2cc2ccccc12)CCCOc1ccc2ccc(=O)oc2c1)c1c2ccccc2cc2ccccc12` [Compound 9, 3-((5-((Anthracene-9-carbonyl)oxy)pentyl)(3-((2-oxo-2H-chromen-7-yl)oxy)propyl)amino)propyl Anthracene-9-carboxylate]: the Ki is 137 nM on hCA IX (setting [1]), more than 10000 nM at hCA I and more than 10000 nM on hCA II.

Consider `O=C(OCCCCCCN(CCCOC(=O)c1c2ccccc2cc2ccccc12)CCCOc1ccc2ccc(=O)oc2c1)c1c2ccccc2cc2ccccc12` [Compound 18, 3-((6-((Anthracene-9-carbonyl)oxy)hexyl)(3-((2-oxo-2H-chromen-7-yl)oxy)propyl)amino)propyl Anthracene-9-carboxylate], for which the Ki on hCA IX (setting [1]) was 166 nM; on hCA I it was more than 10000 nM; on hCA II, more than 10000 nM.

With `O=C(OCCCCCCCN(CCCOC(=O)c1c2ccccc2cc2ccccc12)CCCOc1ccc2ccc(=O)oc2c1)c1c2ccccc2cc2ccccc12` [Compound 27, 3-((7-((Anthracene-9-carbonyl)oxy)heptyl)(3-((2-oxo-2H-chromen-7-yl)oxy)propyl)amino)propyl Anthracene-9-carboxylate], the Ki at hCA IX (setting [1]) was 102 nM; on hCA I, more than 10000 nM; at hCA II it was more than 10000 nM.

On to `COc1cc(/C=C/C(=O)OCCCN(CCCCCCOC(=O)c2cc(OC)c(OC)c(OC)c2)CCCOc2ccc3ccc(=O)oc3c2)cc(OC)c1OC` [Compound 13, (E)-6-((3-((2-Oxo-2H-chromen-7-yl)oxy)propyl)(3-((3-(3,4,5-trimethoxyphenyl)acryloyl)oxy)propyl)amino)hexyl 3,4,5-Trimethoxybenzoate], for which the values for the Ki at hCA IX (setting [1]), on hCA I and on hCA II were 71.7 nM, more than 10000 nM and more than 10000 nM, respectively.

Consider `COc1cc(C(=O)OCCCCCN(CCCOC(=O)c2c3ccccc3cc3ccccc23)CCCOc2ccc3ccc(=O)oc3c2)cc(OC)c1OC` [Compound 6, 3-((3-((2-Oxo-2H-chromen-7-yl)oxy)propyl)(5-((3,4,5-trimethoxybenzoyl)oxy)pentyl)amino)propyl Anthracene-9-carboxylate], for which the figures for the Ki at hCA IX (setting [1]), on hCA I and on hCA II were 36.2 nM, more than 10000 nM and more than 10000 nM, respectively.
